Tests used:
Type in all cases: functional, cell-based
[1] = system: Jurkat; experiment: Cytotoxicity against human Jurkat cells after 72 hrs by MTT assay
[2] = Cytotoxicity against human LCL cells after 72 hrs by MTT assay
[3] = system: JIYOYE; experiment: Cytotoxicity against human EBV-positive Jijoye cells after 72 hrs by MTT assay

Structure (SMILES) | IC50 [1] | IC50 [2] | IC50 [3]
Cc1cn([C@@H]2C[C@H](c3ccccc3)N(Cc3ccccc3)O2)c(=O)[nH]c1=O (relative stereo) | 19.3 µM | 55.2 µM | 36.9 µM
Cc1cn([C@@H]2C[C@H](c3ccccc3)N(C(C)(C)C)O2)c(=O)[nH]c1=O (relative stereo) | 72.2 µM | 87.1 µM | 68.8 µM
Cc1cn([C@@H]2C[C@H](c3ccco3)N(C(C)(C)C)O2)c(=O)[nH]c1=O (relative stereo) | > 100 µM | > 100 µM | > 100 µM
Cc1cn([C@@H]2C[C@H](c3ccccc3Cl)N(C)O2)c(=O)[nH]c1=O (relative stereo) | 8.8 µM | 52.6 µM | 28.5 µM
CN1O[C@@H](n2ccc(N)nc2=O)C[C@@H]1c1ccccc1 (relative stereo) | > 100 µM | > 100 µM | > 100 µM
Cc1cn([C@@H]2C[C@H](c3ccccc3)N(C)O2)c(=O)[nH]c1=O (relative stereo) | 76.6 µM | 82.5 µM | 60.9 µM
CN1O[C@@H](n2ccc(N)nc2=O)C[C@H]1c1ccccc1 (relative stereo) | > 100 µM | > 100 µM | > 100 µM
CC(C)(C)N1O[C@H](n2cc(F)c(=O)[nH]c2=O)C[C@@H]1c1ccccc1 (relative stereo) | 60.6 µM | 67.5 µM | 63.1 µM

— ChEMBL document CHEMBL1250537, “Synthesis and biological evaluation of diastereoisomerically pure N,O-nucleosides” (Bioorg Med Chem, 2010)
